Measured values published in the supplement of paper PMC10307832.

Legend:
Experiment in all cases: relative viability (nuclei count vs DMSO), 5 days (fraction); higher = more cells survive
FG-4592 + Tozasertib = compound: Cc1nc(C(=O)NCC(=O)O)c(O)c2ccc(Oc3ccccc3)cc12 [FG-4592] + Cc1cc(Nc2cc(N3CCN(C)CC3)nc(Sc3ccc(NC(=O)C4CC4)cc3)n2)n[nH]1 [Tozasertib] (partner 0.1 µM)
In short: (§1)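 The day after seeding in 1536-well plates, lung cancer cell lines were treated by pin tool with a single drug, or with a fixed anchor-drug dose together with five library-drug doses (not always all listed) in √10 steps. After 5 days, a combined fix-and-stain solution (final 0.05% Triton X-100, 1% formaldehyde, 1 ug/ml Hoechst) was added. Nuclei counted on 4× images gave relative viability as treated counts over vehicle counts, reported as the median of duplicate plates.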

IU1-47 + Decitabine = compound: CC1=CC(=C(N1C2=CC=C(C=C2)Cl)C)C(=O)CN3CCCCC3 [IU1-47] + Nc1ncn([C@H]2C[C@H](O)[C@@H](CO)O2)c(=O)n1 [Decitabine] (partner 2 µM)
In short: as §1

FG-4592 + Vorinostat = compound: Cc1nc(C(=O)NCC(=O)O)c(O)c2ccc(Oc3ccccc3)cc12 [FG-4592] + O=C(CCCCCCC(=O)Nc1ccccc1)NO [Vorinostat] (partner 1 µM)
In short: as §1

IU1-47 + Crizotinib = compound: CC1=CC(=C(N1C2=CC=C(C=C2)Cl)C)C(=O)CN3CCCCC3 [IU1-47] + C[C@@H](Oc1cc(-c2cnn(C3CCNCC3)c2)cnc1N)c1c(Cl)ccc(F)c1Cl [Crizotinib] (partner 1 µM)
In short: as §1

Cell Line | relative viability (FG-4592 + Tozasertib; first compound 0.08 µM) | relative viability (FG-4592 + Tozasertib; first compound 0.253 µM) | relative viability (FG-4592 + Tozasertib; first compound 0.8 µM) | relative viability (FG-4592 + Tozasertib; first compound 2.53 µM) | relative viability (FG-4592 + Tozasertib; first compound 8 µM) | relative viability (IU1-47 + Decitabine; first compound 0.08 µM) | relative viability (IU1-47 + Decitabine; first compound 0.253 µM) | relative viability (IU1-47 + Decitabine; first compound 0.8 µM) | relative viability (IU1-47 + Decitabine; first compound 2.53 µM) | relative viability (IU1-47 + Decitabine; first compound 8 µM) | relative viability (FG-4592 + Vorinostat; first compound 0.08 µM) | relative viability (FG-4592 + Vorinostat; first compound 0.253 µM) | relative viability (FG-4592 + Vorinostat; first compound 0.8 µM) | relative viability (FG-4592 + Vorinostat; first compound 2.53 µM) | relative viability (FG-4592 + Vorinostat; first compound 8 µM) | relative viability (IU1-47 + Crizotinib; first compound 0.08 µM) | relative viability (IU1-47 + Crizotinib; first compound 0.253 µM) | relative viability (IU1-47 + Crizotinib; first compound 0.8 µM) | relative viability (IU1-47 + Crizotinib; first compound 2.53 µM) | relative viability (IU1-47 + Crizotinib; first compound 8 µM)
COR-L23 | 0.186 | 0.212 | 0.217 | 0.153 | 0.171 | 0.337 | 0.45 | 0.481 | 0.432 | 0.436 | 0.414 | 0.373 | 0.427 | 0.337 | 0.457 | 0.735 | 0.704 | 0.669 | 0.817 | 0.609
ABC-1 | 0.177 | 0.178 | 0.148 | 0.187 | 0.149 | 1.23 | 1.32 | 0.922 | – | 1.19 | 1.14 | 1.01 | – | 1.14 | 1.03 | 1.12 | 1.13 | 0.796 | – | 0.8
SW 900 | 0.575 | 0.675 | 0.527 | 0.417 | 0.531 | 0.414 | – | 0.447 | 0.452 | 0.353 | – | 0.388 | – | 0.548 | 0.469 | – | – | – | – | –
NCI-H838 | 0.296 | 0.246 | 0.279 | 0.242 | 0.26 | 0.423 | 0.451 | 0.471 | 0.501 | 0.449 | 0.742 | 0.729 | 0.696 | 0.839 | 0.705 | 0.858 | 0.895 | 0.844 | 1.03 | 0.669
NCI-H1648 | 0.536 | 0.527 | 0.515 | 0.47 | 0.542 | 0.546 | 0.496 | 0.664 | 0.387 | 0.444 | 0.481 | 0.683 | – | 0.349 | 0.708 | – | – | – | – | –
A549 | – | – | – | – | – | 0.284 | 0.321 | 0.335 | 0.253 | 0.221 | – | – | – | – | – | 0.685 | 0.847 | 0.607 | 0.612 | 0.579
A-427 | 0.21 | 0.223 | 0.201 | 0.206 | 0.224 | 0.556 | 0.583 | 0.517 | 0.547 | 0.5 | 0.84 | 0.85 | 0.845 | 0.806 | 0.78 | 1.04 | 0.938 | 0.944 | – | 0.634
NCI-H1792 | – | – | – | – | – | 0.625 | 0.639 | 0.611 | 0.497 | 0.371 | – | – | – | – | – | 0.993 | 1.03 | 1.07 | 1.02 | 0.522
LCLC-97TM1 | 0.173 | 0.214 | 0.23 | 0.244 | 0.18 | 0.287 | 0.252 | 0.244 | – | 0.234 | 0.63 | 0.737 | – | 0.328 | 0.671 | 0.461 | 0.339 | 0.458 | – | 0.323
NCI-H1703 | – | – | – | – | – | – | – | – | – | – | – | – | – | – | – | 0.524 | 0.917 | 0.426 | 1.15 | 1.11
LCLC-103H | 0.42 | 0.529 | 0.572 | 0.557 | 0.411 | 0.793 | 0.731 | 0.724 | 0.725 | 0.751 | 0.75 | 0.733 | 0.677 | 0.707 | 0.747 | 1.15 | 1.06 | 1.06 | 1.05 | 1.09
PC-3 [JPC-3] | 0.872 | 0.854 | 0.935 | 0.901 | 0.854 | 0.905 | 0.935 | 0.886 | 0.834 | 0.888 | 0.705 | 0.797 | – | 0.853 | 0.823 | 1.08 | 0.975 | 1.08 | – | 0.962
BEN | 0.564 | 0.459 | 0.475 | 0.676 | 0.452 | 0.713 | 0.729 | 0.848 | 0.507 | 0.668 | 0.558 | 0.566 | 0.459 | 0.546 | 0.547 | 0.841 | 0.99 | 1.03 | 0.816 | 0.752
NCI-H1666 | 0.651 | 0.592 | 0.594 | 0.657 | 0.56 | 0.802 | 0.714 | 0.718 | 0.738 | 0.784 | 1.02 | 0.932 | 0.954 | 1.08 | 1.03 | 0.948 | 0.914 | 0.927 | 0.991 | 1.08
LC-2-ad | 0.545 | 0.433 | – | 0.421 | 0.465 | 0.996 | 0.788 | 0.792 | – | 0.78 | 0.715 | 0.645 | 0.782 | 0.637 | 0.683 | 0.412 | 0.444 | 0.434 | 0.572 | 0.41
Calu-6 | – | – | – | – | – | – | – | – | – | – | – | – | – | – | – | 0.838 | 0.829 | 0.692 | 1.02 | 0.665
NCI-H2342 | 0.493 | 0.43 | 0.442 | 0.464 | 0.421 | 0.81 | 0.766 | 0.755 | 0.688 | 0.747 | 0.701 | 0.721 | 0.697 | 0.681 | 0.651 | – | – | – | – | –
EBC-1 | – | – | – | – | – | – | – | – | – | – | – | – | – | – | – | 0.239 | 0.202 | 0.209 | 0.172 | 0.229
NCI-H1299 | – | – | – | – | – | – | – | – | – | – | – | – | – | – | – | 0.965 | 0.93 | 0.977 | 0.972 | 0.834
NCI-H2228 | 0.276 | 0.262 | 0.226 | 0.288 | 0.225 | – | – | – | – | – | 0.592 | 0.408 | 0.77 | 0.583 | 0.449 | 0.524 | 0.455 | 0.449 | 0.555 | 0.448
NCI-H522 | 0.493 | 0.625 | 0.545 | 0.539 | 0.437 | 0.67 | 0.64 | 0.739 | 0.763 | 0.634 | 0.962 | 0.794 | – | 0.724 | 0.89 | – | – | – | – | –
IA-LM | – | – | – | – | – | – | – | – | – | – | 0.826 | 0.83 | 0.814 | 0.943 | 1.04 | – | 0.974 | 0.942 | 1.1 | 0.644
NCI-H1793 | 0.435 | 0.388 | – | 0.362 | 0.317 | 0.53 | – | 0.538 | 0.507 | 0.426 | – | 0.677 | – | 0.638 | 0.678 | – | – | – | – | –
CAL-12T | 0.335 | 0.267 | 0.312 | 0.293 | 0.29 | – | – | – | – | – | 0.624 | 0.583 | 0.651 | 0.585 | 0.496 | 0.689 | 0.713 | 0.479 | 0.839 | 0.518
